Measured values reported in US12448377B2, “Heterocyclic compound” (Takeda Pharmaceutical Company Limited, priority 2019, dated 2025).

Target: T1, human orexin type 2 receptor (Homo sapiens, UniProt O43614)
T1 construct: expressed in transfected cells
T1 sequence (O43614 1-444): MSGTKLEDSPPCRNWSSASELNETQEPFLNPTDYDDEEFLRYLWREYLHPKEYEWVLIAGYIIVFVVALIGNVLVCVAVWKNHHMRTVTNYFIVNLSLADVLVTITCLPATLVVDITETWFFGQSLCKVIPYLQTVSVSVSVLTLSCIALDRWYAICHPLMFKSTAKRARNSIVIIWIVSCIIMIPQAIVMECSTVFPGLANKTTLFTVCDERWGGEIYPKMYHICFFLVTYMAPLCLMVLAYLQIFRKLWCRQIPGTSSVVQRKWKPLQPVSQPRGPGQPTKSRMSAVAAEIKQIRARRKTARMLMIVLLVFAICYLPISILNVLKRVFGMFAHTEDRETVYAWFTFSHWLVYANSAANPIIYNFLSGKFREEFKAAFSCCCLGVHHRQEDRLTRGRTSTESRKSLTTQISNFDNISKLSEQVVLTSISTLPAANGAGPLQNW
Assay: Measurement of orexin type 2 receptor agonist activity (calcium fluorescence, CHO cells forcibly expressing human OX2 receptor)
Type: cell-based
Conditions: compound at 3 μM, DMSO = 0%, orexin A (human) 10 nM = 100%
Description: To obtain a cell clone stably expressing human orexin type 2 receptor, human orexin type 2 receptor cDNA was inserted into pcDNA3.1(+) plasmid vector (Invitrogen), and a plasmid DNA for expression of human orexin type 2 receptor (pcDNA3.1(+)/hOX2R) was cloned. The plasmid DNA was introduced into CHO-K1 cell by an electroporation method, and human orexin type 2 receptor-expressing clonal cells were obtained by limiting dilution method using G418 drug resistance as a selection marker.
CHO cells forcibly expressing human OX2 receptor were seeded in each well of 384 well black transparent bottom plate (BD Falcon) at 10,000 cells/well, and cultured for one day in a 5% CO2 incubator at 37° C. After removal of the medium in the cell plate, assay buffer A containing a calcium indicator (HBSS (Thermo Fisher Scientific), 20 mM HEPES (Thermo Fisher Scientific), 0.1% BSA (Sigma-Aldrich), 2.5 μg/mL Fluo-4 AM (DOJINDO Chemical), 0.08% Pluronic F127 (DOJINDO Chemical), 1.25 mM probenecid (DOJINDO Chemical)) was added thereto at 30 μL/well. The plate was stood for 30 min in a 5% CO2 incubator at 37° C., and further stood at room temperature for 30 min. A test compound prepared by diluting with assay buffer B (HBSS, 20 mM HEPES, 0.1% BSA) was added thereto at 10 μL/well, and the fluorescence value was measured by FDSSμCELL (Hamamatsu Photonics K.K.) every one sec for 1 min, and thereafter every two sec for 1 min 40 sec. The activity (%) of the test compound was calculated assuming that variation in the fluorescence value when DMSO was added instead of the test compound was 0%, and variation in the fluorescence value when orexin A (human) (PEPTIDE INSTITUTE, INC.) was added at the final concentration of 10 nM was 100%.

SMILES	OX2R agonist activity (3 μM, %) [%]
Cc1ccc2n(c1=O)C(COC1CCC(C(F)(F)F)CC1)C(NS(C)(=O)=O)CC2 (racemic) [Example 37, rac-N-[(3S,4R)-7-methyl-6-oxo-4-({[(1s,4S)-4-(trifluoromethyl)cyclohexyl]oxy}methyl)-1,3,4,6-tetrahydro-2H-quinolizin-3-yl]methanesulfonamide]	94
CCS(=O)(=O)NC1CCc2ccc(C)c(=O)n2C1COC1CCC(C(F)(F)F)CC1 (racemic) [Example 38, rac-N-[(3S,4R)-7-methyl-6-oxo-4-({[(1s,4S)-4-(trifluoromethyl)cyclohexyl]oxy}methyl)-1,3,4,6-tetrahydro-2H-quinolizin-3-yl]ethanesulfonamide]	88
Cc1ccc2n(c1=O)C(COC1CCC(c3ccc(F)cc3)CC1)C(NS(C)(=O)=O)CC2 (racemic) [Example 40, rac-N-[(3S,4R)-4-({[(1s,4S)-4-(4-fluorophenyl)cyclohexyl]oxy}methyl)-7-methyl-6-oxo-1,3,4,6-tetrahydro-2H-quinolizin-3-yl]methanesulfonamide]	89
Cc1ccc2n(c1=O)C(COC1CCC(c3ccccc3F)CC1)C(NS(=O)(=O)C1CC1)CC2 (racemic) [Example 45, rac-N-[(3S,4R)-4-({[(1s,4S)-4-(2-fluorophenyl)cyclohexyl]oxy}methyl)-7-methyl-6-oxo-1,3,4,6-tetrahydro-2H-quinolizin-3-yl]cyclopropanesulfonamide]	95
CCC1CCC(OCC2C(NS(C)(=O)=O)CCc3c(C)cc(C)c(=O)n32)CC1 (racemic) [Example 48, rac-N-[(3S,4R)-4-({[(1s,4S)-4-ethylcyclohexyl]oxy}methyl)-7,9-dimethyl-6-oxo-1,3,4,6-tetrahydro-2H-quinolizin-3-yl]methanesulfonamide]	95
Cc1ccc2n(c1=O)C(COC1CCC(C(F)F)CC1)C(NS(C)(=O)=O)CC2 (racemic) [Example 55, N-[(3SR,4RS)-4-({[4-(difluoromethyl)cyclohexyl]oxy}methyl)-7-methyl-6-oxo-1,3,4,6-tetrahydro-2H-quinolizin-3-yl]methanesulfonamide]	88
COC(C)C1CCC(OCC2C(NS(C)(=O)=O)CCc3ccc(C)c(=O)n32)CC1 (racemic) [Example 56, N-[(3SR,4RS)-4-({[(1s,4S)-4-(1-methoxyethyl)cyclohexyl]oxy}methyl)-7-methyl-6-oxo-1,3,4,6-tetrahydro-2H-quinolizin-3-yl]methanesulfonamide]	84
CCC(O)C1CCC(OCC2C(NS(C)(=O)=O)CCc3ccc(C)c(=O)n32)CC1 (racemic) [Example 58, N-[(3SR,4RS)-4-({[4-(1-hydroxypropyl)cyclohexyl]oxy}methyl)-7-methyl-6-oxo-1,3,4,6-tetrahydro-2H-quinolizin-3-yl]methanesulfonamide]	95
CCOC1CCC(OCC2C(NS(C)(=O)=O)CCc3ccc(C)c(=O)n32)CC1 (racemic) [Example 59, rac-N-[(3S,4R)-4-({[(1s,4S)-4-ethoxycyclohexyl]oxy}methyl)-7-methyl-6-oxo-1,3,4,6-tetrahydro-2H-quinolizin-3-yl]methanesulfonamide]	93
Cc1ccc2n(c1=O)C(COC1CCC(OC(C)C)CC1)C(NS(C)(=O)=O)CC2 (racemic) [Example 61, rac-N-{(3S,4R)-7-methyl-6-oxo-4-[({(1s,4S)-4-[(propan-2-yl)oxy]cyclohexyl}oxy)methyl]-1,3,4,6-tetrahydro-2H-quinolizin-3-yl)methanesulfonamide]	103
COC(C)(C)C1CCC(OCC2C(NS(C)(=O)=O)CCc3ccc(C)c(=O)n32)CC1 (racemic) [Example 74, rac-N-[(3S,4R)-4-(([(1s,4S)-4-(2-methoxypropan-2-yl)cyclohexyl]oxy)methyl)-7-methyl-6-oxo-1,3,4,6-tetrahydro-2H-quinolizin-3-yl]methanesulfonamide]	95
CCCCCC1CCC(OCC2C(NS(=O)(=O)C3CC3)CCc3ccc(C)c(=O)n32)CC1 (racemic) [Example 76, rac-N-[(3S,4R)-7-methyl-6-oxo-4-({[(1r,4S)-4-pentylcyclohexyl]oxy}methyl)-1,3,4,6-tetrahydro-2H-quinolizin-3-yl]cyclopropanesulfonamide]	93
CCCCC1CCC(OCC2C(NS(C)(=O)=O)CCc3ccc(C)c(=O)n32)CC1 (racemic) [Example 80, rac-N-[(3S,4R)-4-({[(1r,4S)-4-butylcyclohexyl]oxy}methyl)-7-methyl-6-oxo-1,3,4,6-tetrahydro-2H-quinolizin-3-yl]methanesulfonamide]	99
CCOCC1CCC(OCC2C(NS(C)(=O)=O)CCc3ccc(C)c(=O)n32)CC1 (racemic) [Example 81, rac-N-[(3S,4R)-4-({[(1s,4S)-4-(ethoxymethyl)cyclohexyl]oxy}methyl)-7-methyl-6-oxo-1,3,4,6-tetrahydro-2H-quinolizin-3-yl]methanesulfonamide]	102
Cc1ccc2n(c1=O)C(COC1CCC(COC3CCCCO3)CC1)C(NS(C)(=O)=O)CC2 (racemic) [Example 82, N-[(3SR,4RS)-7-methyl-4-(([(1s,4S)-4-{[(oxay-2-yl)oxy]methyl}cyclohexyl]oxy}methyl)-6-oxo-1,3,4,6-tetrahydro-2H-quinolizin-3-yl]methanesulfonamide]	56
COCCC1CCC(OCC2C(NS(C)(=O)=O)CCc3ccc(C)c(=O)n32)CC1 (racemic) [Example 83, rac-N-[(3S,4R)-4-({[(1s,4S)-4-(2-methoxyethyl)cyclohexyl]oxy}methyl)-7-methyl-6-oxo-1,3,4,6-tetrahydro-2H-quinolizin-3-yl]methanesulfonamide]	91
CCOC(=O)CC1CCC(OCC2C(NS(C)(=O)=O)CCc3ccc(C)c(=O)n32)CC1 (racemic) [Example 84, rac-ethyl [(1S,4s)-4-({(3S,4R)-3-[(methanesulfonyl)amino]-7-methyl-6-oxo-1,3,4,6-tetrahydro-2H-quinolizin-4-yl}methoxy)cyclohexyl]acetate]	75
Cc1ccc2n(c1=O)C(COC1CCC(CC(C)(C)O)CC1)C(NS(C)(=O)=O)CC2 (racemic) [Example 85, rac-N-[(3S,4R)-4-({[(1s,4S)-4-(2-hydroxy-2-methylpropyl)cyclohexyl]oxy}methyl)-7-methyl-6-oxo-1,3,4,6-tetrahydro-2H-quinolizin-3-yl]methanesulfonamide]	59
Cc1ccc2n(c1=O)C(COC1CCC(CF)CC1)C(NS(C)(=O)=O)CC2 (racemic) [Example 86, rac-N-[(3S,4R)-4-({[(1s,4S)-4-(fluoromethyl)cyclohexyl]oxy}methyl)-7-methyl-6-oxo-1,3,4,6-tetrahydro-2H-quinolizin-3-yl]methanesulfonamide]	89
Cc1ccc2n(c1=O)C(COC1CCC(CC3CC3)CC1)C(NS(C)(=O)=O)CC2 (racemic) [Example 87, rac-N-[(3S,4R)-4-({[(1s,4S)-4-(cyclopropylmethyl)cyclohexyl]oxy}methyl)-7-methyl-6-oxo-1,3,4,6-tetrahydro-2H-quinolizin-3-yl]methanesulfonamide]	89
Cc1ccc2n(c1=O)C(COC1CCC(CC(C)C)CC1)C(NS(C)(=O)=O)CC2 (racemic) [Example 88, rac-N-[(3S,4R)-7-methyl-4-({[(1a,4S)-4-(2-methylpropyl)cyclohexyl]oxy}methyl)-6-oxo-1,3,4,6-tetrahydro-2H-quinolizin-3-yl]methanesulfonamide]	95
Cc1ccc2n(c1=O)C(COC1CCC(COC(C)C)CC1)C(NS(C)(=O)=O)CC2 (racemic) [Example 92, rac-N-[(3S,4R)-7-methyl-6-oxo-4-({[(1s,4S)-4-([(propan-2-yl)oxy]methyl}cyclohexyl]oxy}methyl)-1,3,4,6-tetrahydro-2H-quinolizin-3-yl]methanesulfonamide]	90
